Laboratory results as given in a melting point compilation (Tetko et al.; mined from patent text by program, amines drawn as free bases though some values may be those of a salt).

melting point [°C] | Structure (SMILES)
59 to 61 | CCc1cc(C#N)c(OC)nc1C
174 to 180 | Nc1cccc(C(=O)CN2CCN(c3ccc(CO)c(Cl)c3)CC2)c1
210 to 215 | COC(=O)c1nsc(NC=O)n1
267 | CN(C)c1ccc(-c2[nH]nc3c2C(=O)c2c(NC(=O)CN4CCC(O)CC4)cccc2-3)cc1
103 to 104 | CC#Cc1ccc([C@H]2CC[C@H](CCCCC)CC2)nn1
267 to 269 | S=C(Nc1ccccc1)N1CCN(c2nc3cccccc-3n2)CC1
74 to 75 | OCc1cccc2cccnc12
110 to 112 | C=CCOc1cc(NC(C)=O)c(Cl)cc1C(=O)OC
83 to 84 | CCCCCCC(O)C(=O)NCCS (configuration not stated)
104 to 106 | COCCSc1cc2c(N3CCc4ccc(Cl)cc43)ncnc2cc1Cl
85 to 87 | COC(=O)[C@@H]1[C@H](c2ccccc2)N1S(=O)(=O)c1ccc(C)cc1 (some centres not stated)
143 to 145 | CN(c1ccncc1)c1csc2ncccc12
91 to 92 | Nc1cnc(F)c(Br)c1
165 to 166 | Cc1nc(OC(F)F)nc(C)c1N1CCCn2c1nc1c(Cl)ccc(C(OC(F)F)C(F)(F)F)c12 (configuration not stated)
202 to 204 | COc1nc(C)c(C)nc1NC(=O)N1CCN(c2c(C)c(C)cc(C)c2C)CC1
> 250 | CC(=NO)c1ccc2c(c1)C(=NNc1cccc(S(N)(=O)=O)c1C)C(=O)N2
130 to 134 | O=C(NS(=O)(=O)c1ncccc1C(F)(F)F)Oc1ccccc1
255 | CN1C2=C(C(=O)OC2)C(c2ccncc2)c2cc3c(cc21)OCO3 (configuration not stated)
104 to 105 | CC(C)(C)OC(=O)N1CC=C(c2ncccc2N)CC1
145 to 147 | COC(=O)c1cnc(CO)n1C
> 350 | Cc1cccc(-c2c(O)c3ccc(Cl)cc3[nH]c2=O)c1
227 to 230 | CCNC(=O)Nc1ccc(Oc2ccc3nc(COc4ccc(CC5SC(=O)NC5=O)cc4)n(C)c3c2)cc1 (configuration not stated)
90 to 93.5 | COc1ccccc1NC(=O)c1ccc(CN2CCOCC2)cc1
168 to 170 | NC1=NN(c2ccccn2)CC1
263 to 265 | O=C(Nc1csc(-c2cccnc2)n1)c1nnn[nH]1

melting point [°C] | Structure (SMILES)
249 to 250 | O=C1c2cc([N+](=O)[O-])cc3c(N4CCCC4)c([N+](=O)[O-])cc(c23)C(=O)N1O
135 to 137 | Cc1ccc(S(=O)(=O)N2CCN(C(=O)c3cc4cc(O)ccc4cc3O)CC2)cc1
135 to 138 | COc1cc(S(C)(=O)=O)ccc1OCc1ccc(C2CCN(C(=O)OC(C)(C)C)CC2)cn1
45 to 46 | COc1ccc(OCCCCCCCc2cc(C)no2)c(Cl)c1
201 to 203 | CCCc1nc2c(N)nc3ccccc3c2n1CC1(O)CCOC1 (configuration not stated)
137 | COC(=O)c1cncc(OC2SCC(O)C(O)C2O)c1 (configuration not stated)
> 300 | CN(C)CCNc1ccc([N+](=O)[O-])c2sc3ccc(O)cc3c(=O)c12
250 | NC(=O)N1C(=O)C(C(=O)c2cccs2)c2cnccc21 (configuration not stated)
102 to 103 | CCCc1nn(-c2ccc(C(F)(F)F)cn2)cc1CCCOc1c(CC(=O)O)cccc1C(C)C
155 to 157 | CCOCn1nccc1C(O)c1ccc(OC)c(Cl)c1Cl (configuration not stated)
157 to 158 | Cc1c(C)c2c(c(C)c1NC=O)CC(C)(CBr)O2 (configuration not stated)
186 | COc1ccc2ccc3c(c2c1)CC(NC(C)=O)CO3 (configuration not stated)
176 to 178 | O=C(Nc1ccc(C(=O)N2C[C@@H]3C[C@@H](O)CN3C(=O)c3ccccc32)cc1)c1ccccc1-c1ccccc1
55 to 56 | CC1(C)O[C@]23C[C@H]1CC[C@]2(C)CCCC3=O
133 to 134 | CC(C)Cn1nc(OCCCc2ccc(OC(C)C)cc2OCc2ccc(Cl)cc2Cl)cc1CCC(=O)O
118 to 123 | CN(C)Cc1nc(CSCCNc2ncc(CC3CCCO3)c(=O)[nH]2)cs1 (configuration not stated)
163 to 165 | Cc1c(Br)ccc(O)c1C(=O)O
89 to 90 | CC(C)N1CCN(C(=O)c2cc(N)cc(C(F)(F)F)c2)CC1
134 to 135 | O=Cc1oc(-c2ccccc2)nc1CO
126 to 127 | CC1=C(C)C(=O)C(C(CCCCCC(=O)O)c2cccnc2)=C(C)C1=O (configuration not stated)
101 | NCCCN(CC1COc2ncccc2O1)c1ccc(Cl)nn1 (configuration not stated)
188 | COc1ccc(-c2c(C(N)=O)c3n(c2Cl)CCN(C(=O)OC(C)(C)C)C3)cc1
77 to 80 | CN1C(C)(C)CN(CCO)C(=O)C1(C)C
232 to 234 | CN(C)CCn1c(=O)c(=NO)nc(-c2ccccc2)c2ccccc21
89 to 92 | CCOC(=O)c1cccc(NC(=O)C(CSC(C)=O)Cc2ccccc2)c1 (configuration not stated)

melting point [°C] | Structure (SMILES)
108 to 113 | CC(=O)Oc1ccc2c(c1)C[C@H]1CCCN(C(C)=O)[C@H]1C2 (relative stereo)
154 | O=CC1(c2ccc(Br)cc2)CC=CO1 (configuration not stated)
168 to 169 | COc1ccccc1C1(O)c2cc(NC(=O)CC(C)(C)C)c(C)c(C)c2OC1(C)C (configuration not stated)
78 to 80 | CC(NC(=O)c1cccnc1Oc1ccc(F)cc1)c1ccc(Cl)s1 (single isomer, unassigned; (+))
144 to 147 | Cc1cc(C)cc(CCCn2c(=O)c3c(Cl)cc(Cl)cc3n(Cc3ccccc3)c2=O)c1
78 to 80 | CC1C(=O)Oc2cc(N3CCCCC3)ccc21 (configuration not stated)
98 to 99 | COc1ccc(C2=CCN(c3ccc(Cl)c(Cl)c3)C2=O)cc1OCCN1CCCCC1
223 to 225 | CC(C)(C)OC(=O)N1CCn2c(Cl)cc(C(N)=O)c2C1
65 to 66 | CC(C)(C)OC(=O)C12CC3CC(C1)CC(C(=O)OC(C)(C)C)(C3)C2
149 | CC(=O)OC1CSC(Oc2cccnc2-c2ccc(F)cc2)C(OC(C)=O)C1OC(C)=O (configuration not stated)
128 to 130 | Cc1ccc2c(c1)C(=O)C1=NCCCN12
98 to 100 | CCCCCCNC(=O)OCCCCCCCCCCCCNC(=O)OC1CCN(C(=O)O)CC1
111 to 112 | COc1ccc(NC(=O)NCCCOc2cccc(CN3CCCCC3)c2)cc1
85 to 86.5 | N#Cc1ccc2c(c1)C(O)CCCO2 (configuration not stated)
50 to 51 | CCn1nc(C#N)c(Br)c1CC(C)C
73 to 75 | CS(=O)(=O)OC1CCc2c(sc(N)c2C(=O)c2ccc(Cl)cc2)C1 (configuration not stated)
220 | COc1cc2c(cc1OC)C1(O)c3ccccc3CCN1C2=O (configuration not stated)
147 | COC(=O)C1=C(C)NC(C)=C(Cl)C1c1ccccc1 (configuration not stated)
161 to 162 | COc1ccc(C2Sc3ccccc3N(CCN(C)C)C(=O)C2OC(=O)c2ccccc2[N+](=O)[O-])cc1 (configuration not stated)
209 to 210 | CC(C)n1nc(-c2cnc(N)nc2-c2ccc(C(F)(F)F)cc2)ccc1=O
86 to 87 | CCCCCCCCCCCCCCOc1ccc(CC(=O)O)cc1
237 to 240 | COc1ccccc1-n1c(=O)[nH]c2c(C(N)=O)nc(-c3ccccc3C(F)(F)F)nc21
119 | N#Cc1ccc(C=Cc2ccccc2)cc1
84 to 86 | Cc1noc(NS(=O)(=O)c2cccc(-c3ccccc3)c2)c1Cl
166 to 170 | N#Cc1ccc2c(c1)Sc1ccccc1CC2=O

melting point [°C] | Structure (SMILES)
210 to 212 | CCCOc1ccc2c(c1)[C@H](c1ccc(OC)cc1OCC(=O)O)[C@@H](CC(=O)O)[C@@H]2c1ccc2c(c1)OCO2 (racemic)
224 to 227 | CCCNC(=O)C(C)=Cc1ccc2ccn(Cc3ccc(C(=O)NS(=O)(=O)c4ccccc4C)cc3OC)c2c1
267 to 269 | Nc1c2c(=O)[nH]c(C(F)(F)F)nc2nn1-c1ccccc1
198 to 200 | O=C(NCCc1ccc(O)c(O)c1)C12CC3CC(CC(C3)C1)C2
84 to 86 | CC(C)C(NC(=O)c1ccc(C(=O)NCCCC(=O)O)cc1)C(=O)N1CCCC1C(=O)NC(C(=O)C(F)(F)F)C(C)C (mixture of isomers)
195 to 196 | Cc1cccc(Nc2cc(-c3c(-c4cccc(C)c4)nc4cccnn34)ccn2)c1
147 to 148 | CCOC1=NS(=O)(=O)C(C#N)=C1OCC
161 to 163 | Cc1ccc2c(c1)Sc1ccc(Cl)cc1CC2N1CCN(CCN2CCOC2=O)CC1 (configuration not stated)
172 | CC(C)(C)C(=O)Nc1ccc(F)c(Oc2ccc(C3CC(=O)NC(=O)C3)cc2)c1F
119 to 121 | CCNC(=O)c1ccc(N2CCN(Cc3cc4c(c(OC)c3)OC(C)C(=O)N4)CC2)c(Cl)c1 (configuration not stated)
233 to 235 | CC1=C(C(=O)OCCO)C(c2cccc([N+](=O)[O-])c2)C2=C(CCCS2(=O)=O)N1 (configuration not stated)
214 to 216 | Cc1nc(O)c(F)c(Cl)n1
107 to 108 | CON=C(c1ncon1)c1ccccc1COc1ccc(Cl)cc1
146 to 148 | CC(=O)NC[C@H]1CN(c2ccc(C3CCNCC3)cc2)C(=O)O1
187 to 188 | O=C(O)Cc1ccc([N+](=O)[O-])cc1CC(=O)O
100 to 120 | Nc1ccc(S(=O)(=O)Nc2ccn(C3CCCCC3)c(=O)n2)cc1
224 | O=C(Nc1ccc2ccc(Cl)nc2n1)c1cccc(Br)c1
235 | O=C(O)Cc1cc(C(=O)C=Cc2ccccc2Cl)ccc1O
236 to 237 | CC(C)(C)c1ccc(S(=O)(=O)Nc2nc(-c3ncccn3)nc(OCCO)c2-c2cccs2)cc1
239 to 240 | O=C(Nc1nnco1)C1c2ccccc2Oc2ccccc21
104 to 106 | COc1ccc(C(=O)NCC(O)CCl)cc1OC (configuration not stated)
167 to 168 | CCc1nn(C)c(NC(=O)Cc2ccc(Br)cc2)c1Cl

Structure (SMILES) | melting point [°C]
N#CCc1cc(F)c(OCc2ccccc2)c(OCc2ccccc2)c1 | 120 to 121
CNC(=O)c1nc(SC)n2c1CN=C(c1ccccc1Cl)c1cc(Cl)ccc1-2 | 224 to 227
O=[N+]([O-])N=C1NC(O)CN1Cc1ccc(Cl)nc1 (configuration not stated) | 170
O=C1C=C(NC(=O)C(=O)c2cn(Cc3cccc(Br)c3)c3ccccc23)CO1 | 278 to 280
N#Cc1nn(-c2c(Cl)cc(C(F)(F)F)cc2Cl)c(N)c1C(=O)CBr | 190 to 192
